Test results from patent publication US8349899B1 (Arrowhead Center, Inc., priority 2008, dated 2013).
Read-outs that look alike come from different tables or passages of the source.

Experiments:
[1] = tested on: HeLa cervical adenocarcinoma cells; assay: bipolar spindle formation in HeLa cells; assay type: cell-based, human; conditions: for IC50: read-out: Bipolar spindle formation IC50; for inhibitory activity in the cell-based assay: HeLa bipolar spindle formation
Procedure: (§1) Biochemical- and cell-based assays were used to evaluate the inhibitory activities of the STLC analogs. Using a commercially available assay from Cytoskeleton, Inc, analogs were assayed for their ability to block the microtubule-activated ATPase activity of recombinant human EG5 motor domain. In parallel, HeLa cells were treated for four hours with a range of concentrations, and then fixed, stained for microtubules, and mitotic cells were scored for spindle bipolarity.

NCI-H522 = conditions: Non-Small Cell Lung NCI-H522; data previously determined; cited from earlier work
SK-OV-3 = conditions: Ovarian SK-OV-3; data previously determined; cited from earlier work
U251 = conditions: Central Nervous System U251; data previously determined; cited from earlier work
HCT-116 = conditions: Colon HCT-116; data previously determined; cited from earlier work
NCI-H226 = conditions: Non-Small Cell Lung NCI-H226; data previously determined; cited from earlier work
SF-295 = conditions: Central Nervous System SF-295; data previously determined; cited from earlier work
UO-31 = conditions: Renal UO-31; data previously determined; cited from earlier work
OVCAR-5 = conditions: Ovarian OVCAR-5; data previously determined; cited from earlier work
[2] = target: T1, recombinant human EG5 motor domain (Homo sapiens, UniProt P52732); assay: microtubule-activated Eg5 ATPase assay (Cytoskeleton, Inc); assay type: biochemical; conditions: for inhibitory activity in the biochemical assay: Eg5 ATPase assay; for IC50: microtubule-activated ATPase activity of recombinant human EG5 motor domain
T1 construct: recombinant human EG5 motor domain; purchased Cytoskeleton, Inc
T1 sequence (P52732 18-359 limits assumed): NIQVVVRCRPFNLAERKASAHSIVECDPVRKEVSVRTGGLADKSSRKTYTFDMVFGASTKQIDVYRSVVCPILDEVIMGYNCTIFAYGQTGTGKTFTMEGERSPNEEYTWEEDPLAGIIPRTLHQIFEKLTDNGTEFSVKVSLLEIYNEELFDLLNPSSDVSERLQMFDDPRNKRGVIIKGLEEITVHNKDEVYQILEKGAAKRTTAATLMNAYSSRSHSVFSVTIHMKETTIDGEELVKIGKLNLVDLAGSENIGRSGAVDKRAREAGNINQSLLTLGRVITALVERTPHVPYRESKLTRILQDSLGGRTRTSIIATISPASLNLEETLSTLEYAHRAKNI
Procedure: as §1

[3] = Homo sapiens, HeLa cells treated with analog for 4 hours, scored for bipolar vs monopolar spindle formation

Molecule | IC50 [1, 3] [µM] | inhibitory activity in the cell-based assay [1] | inhibitory activity in the biochemical assay [2] | IC50 [2] [µM] | further results
N[C@H](CO)CSC(c1ccccc1)(c1ccccc1)c1ccccc1 [Compound 1.1] |  |  |  |  | IC50 ([1]; Homo sapiens, HeLa, 4 h): 0.58 µM
COc1ccc(C(SC[C@@H](N)CO)(c2ccccc2)c2ccccc2)cc1 [Compound 1.3] |  |  |  |  | IC50 ([1]; Homo sapiens, HeLa, 4 h): 0.2 µM
N[C@@H](CSC(c1ccccc1)(c1ccccc1)c1ccccc1)C(=O)O [Compound 2.5, (R)-2-amino-3-(tritylthio)propanoic acid] | 0.66 |  |  |  | GI50 (NCI-H522): 0.5 µM; GI50 (SK-OV-3): 100 µM; GI50 (U251): 1 µM; GI50 (HCT-116): 0.5 µM; GI50 (NCI-H226): 100 µM; GI50 (SF-295): 0.5 µM; GI50 (UO-31): 100 µM; GI50 (OVCAR-5): 100 µM
N[C@@H](CSCC1c2ccccc2-c2ccccc21)C(=O)O [Compound 2.7, (R)-3-(((9H-fluoren-9-yl)methyl)thio)-2-aminopropanoic acid] | > 100 | no measurable activity | no measurable activity | > 100 | 
N[C@@H](COC(c1ccccc1)(c1ccccc1)c1ccccc1)C(=O)O [Compound 2.8, (S)-2-amino-3-(trityloxy)propanoic acid] | 0.85 |  |  | 0.76 | 
N[C@@H](CSC(c1ccccc1)c1ccccc1)C(=O)O [Compound 2.9, (R)-2-amino-3-(benzhydrylthio)propanoic acid] | > 100 | no measurable activity | no measurable activity | > 100 | 
N[C@@H](CSC1c2ccccc2-c2ccccc21)C(=O)O [Compound 3.0, (R)-3-((9H-fluoren-9-yl)thio)-2-aminopropanoic acid] | > 100 | no measurable activity | no measurable activity | > 100 | 
CC(=O)N[C@@H](CSC(c1ccccc1)(c1ccccc1)c1ccccc1)C(=O)O [Compound 3.1, (R)-2-acetamido-3-(tritylthio)propanoic acid] | > 100 | no measurable activity | no measurable activity | > 100 | 
COC(=O)[C@@H](N)CSC(c1ccccc1)(c1ccccc1)c1ccccc1 [Compound 3.2, (R)-methyl 2-amino-3-(tritylthio)propanoate] | 0.92 |  |  | 0.51 | 
NC(=O)[C@@H](N)CSC(c1ccccc1)(c1ccccc1)c1ccccc1 [Compound 3.3, (R)-2-amino-3-(tritylthio)propanamide] | 0.67 |  |  | 0.54 | 
N[C@@H](CSC(c1ccccc1)(c1ccccc1)c1cccnc1)C(=O)O [Compound 3.4, (R)-2-amino-3-((diphenyl(pyridin-3-yl)methyl)thio)propanoic acid] | > 100 | no measurable activity | no measurable activity | > 100 | 
C#CCNC(=O)[C@@H](N)CSC(c1ccccc1)(c1ccccc1)c1ccccc1 [Compound 3.5, (R)-2-amino-N-(prop-2-yn-1-yl)-3-(tritylthio)propanamide] | 0.76 |  |  | 0.49 | 
CC(=O)N[C@@H](CSC(c1ccccc1)(c1ccccc1)c1ccccc1)C(N)=O [Compound 3.6, (R)-2-acetamido-3-(tritylthio)propanamide] | > 100 | no measurable activity | no measurable activity | > 100 | 
CCCCNC(=O)[C@@H](N)CSC(c1ccccc1)(c1ccccc1)c1ccccc1 [Compound 3.8, (R)-2-amino-N-butyl-3-(tritylthio)propanamide] | 0.68 |  |  | 0.56 | 
C#CCNC(=O)[C@@H](N)CSC(c1ccccc1)(c1ccccc1)c1ccc(OC)cc1 [Compound 4.0] | 0.44 |  |  | 0.31 | 
COc1ccc(C(SC[C@H](N)C(=O)NCCOCCN)(c2ccccc2)c2ccccc2)cc1 [Compound 4.2, (R)-2-amino-N-(2-(2-aminoethoxy)ethyl)-3-(((4-methoxyphenyl)diphenylmethyl)thio)propanamide] | 0.54 |  |  | 0.28 | 
(R)-2-amino-3-(((4-methoxyphenyl)diphenylmethyl)thio)propanamide [Compound 3.9] |  | no measurable activity | no measurable activity |  | IC50 ([1]; HeLa cells treated with analog for 4 hours, scored for bipolar vs monopolar spindle formation): > 100 µM
